According to ChEMBL document CHEMBL4665850, “Effect of methoxyflavones contained in Kaempferia parviflora on CRE-mediated transcription in PC12D cells” (Bioorg Med Chem Lett, 2020):
The source made the active and inactive calls. The calls are words filed in the database; no cut-off is given here.

Assays:
[1] = Cytotoxicity against rat PC12D cells assessed as reduction in cell viability at 30 uM by MTT assay; assay type: cell-based
[2] = test system: PC12D; experiment: Activation of CRE-mediated transcription in rat PC12D cells transfected with pCRE-firefly luciferase and pRL-null-renilla luciferase assessed as increase in CRE-driven firefly luciferase activity at 30 uM by dual luciferase reporter gene assay; assay type: functional, cell-based
[3] = Effect on transcription in rat PC12D cells transfected with pCRE-firefly luciferase and pRL-null-renilla luciferase assessed as renilla luciferase activity at 30 uM by dual luciferase reporter gene assay; assay type: ADME, cell-based

COc1ccc(-c2cc(=O)c3c(O)cc(OC)cc3o2)cc1 [APIGENIN DIMETHYLETHER]
Activity [1]: Non-Toxic | Activity [2]: inactive | Activity [3]: Non-Toxic

COc1cc(OC)c2c(=O)c(OC)c(-c3ccc(OC)c(OC)c3)oc2c1
Activity [1]: Non-Toxic | Activity [2]: Active | Activity [3]: Non-Toxic

COc1ccc(-c2oc3cc(OC)cc(O)c3c(=O)c2OC)cc1
Activity [1]: Non-Toxic | Activity [2]: inactive | Activity [3]: Non-Toxic

COc1cc(OC)c2c(=O)cc(-c3ccc(OC)c(OC)c3)oc2c1 [TETRAMETHYLLUTEOLIN]
Activity [1]: Non-Toxic | Activity [2]: Active | Activity [3]: Toxic

COc1cc(O)c2c(=O)c(OC)c(-c3ccccc3)oc2c1
Activity [1]: Non-Toxic | Activity [2]: inactive | Activity [3]: Non-Toxic

COc1cc(O)c2c(=O)c(OC)c(-c3ccc(OC)c(OC)c3)oc2c1 [RETUSIN]
Activity [1]: Non-Toxic | Activity [2]: inactive | Activity [3]: Non-Toxic

COc1ccc(-c2cc(=O)c3c(OC)cc(OC)cc3o2)cc1 [TRIMETHYLAPIGENIN]
Activity [1]: Non-Toxic | Activity [2]: Active | Activity [3]: Toxic

COc1cc(O)c2c(=O)cc(-c3ccccc3)oc2c1 [TECHTOCHRYSIN]
Activity [1]: Non-Toxic | Activity [2]: inactive | Activity [3]: Non-Toxic

COc1cc(OC)c2c(=O)cc(-c3ccccc3)oc2c1 [CHRYSIN DIMETHYL ETHER]
Activity [1]: Non-Toxic | Activity [2]: Active | Activity [3]: Toxic
